# Source: US20260306640A1, “TECHNOLOGIES TARGETING CELL STATES” (Auron Therapeutics, Inc., priority 2023, published 2026)
# Tests used:
# NCI-H1048 tumors = assay: Tumor growth inhibition in nude Balb/c mice bearing NCI-H1048 tumors; format: in vivo; settings: 30 mg/kg, once per week i.p.; average tumor volumes from 6 mice; FIG. 1 (D)
# Experimental: (§1) FIG. 1. Provided compounds can provide various activities including inhibiting tumor growth in vivo. (A): Provided compounds can inhibit tumor growth in vivo. Nude Balb/c mice were inoculated with NCI-H1048 cells in Matrigel. Tumors were allowed to grow up to about 200 mm^3 and mice were then randomized into two groups. Mice were dosed intraperitoneally (i.p.) once per week with vehicle or 30 mg/kg compound 22. Tumor size was measured every three to four days and mice were sacrificed once vehicle tumors reached 2000 mm^3. Error bar is SEM. Dosing started at day 17 post tumor inoculation. (B): Provided technologies can reduce KAT2A and KAT2B levels and histone acetylation levels. […] Vehicle is DMSO. […] Cell count data relative to DMSO control after 8 days of treatment with compound 22 are presented as examples to confirm inhibition. GI50=6 nM. (D): Provided technologies can inhibit tumor growth in vivo. Nude balb/c mice inoculated with H1048 tumors were dosed intraperitoneally once per week (qw i.p.) with vehicle (HbCD) or compound 22. Average tumor volumes+/−SEM from 6 mice are represented. […] See also (A). […] Certain body weights relative to starting weight are presented as examples to confirm tolerability and safety. (F): Provided technologies can reduce KAT2A and KAT2B levels and histone acetylation levels in tumor in vivo. […]
# [1] = system: histone acetylation (e.g., AcH3K9); assay: Histone H3K9 acetylation (AcH3K9), Western Blot, LASCPC-01 cells; format: cell-based; settings: FIG. 3
# Experimental: In some embodiments, an assessment is performed using cells. In some embodiments, cells were treated with various compounds before assessing KAT2A and/or KAT2B levels, histone (e.g., H3K9) acetylation levels, cell states, growth, etc.
# Western Blot: In some assessments, MOLM13, NCI-H1048, LASCPC-01 and NEPC organoid cells were treated with compounds at certain concentrations for certain periods of time, and cell pellets were lysed by adding 1-part 4×laemmli Sample buffer (e.g., Bio-Rad Catalog #1610747) along with Mercaptoethanol (e.g., Bio-Rad Catalog #1610710) according to manufacturer's instructions, and 1-part RIPA buffer with 2×protease and phosphatase inhibitor. The samples were sonicated 30% amplitude, 35 seconds on and 35 seconds off for 1 cycle and boiled at 95° C. for 5 minutes. 30-35 μL of samples were loaded on a 4-15% Criterion™ TGX Stain-Free™ Protein Gel (Bio-rad, 5678084). In some assessments, NCI-H1048 flash frozen tumor pieces were resuspended in RIPA buffer and homogenized on TissueLyser II with steel beads at 30 Hz for 3 minutes. Samples were then centrifuged at […] at 4° C. for 15 minutes. BCA protein determination was performed and samples normalized for 1.95 ug/uL. 19.5 uL were loaded and run on similar gels as cell pellets. […]
# histone acetylation [2] = assay: Western blot of histone acetylation in NCI-H1048 cells, 24 h; format: cell-based; settings: various concentrations, FIG. 1 (B)
# Experimental: as §1
# histone acetylation [3] = assay: Western blot of histone acetylation in NCI-H1048 tumors, 168 hours post last dose; format: in vivo; settings: FIG. 1 (F)
# Experimental: as §1
# LASCPC-01 cells = assay: Cell viability (Cell Titer Glo, 7 days), LASCPC-01 cells; format: cell-based; settings: 168 h, Cell Titer Glo relative to DMSO control after 7 days, FIG. 3 (B)
# Experimental: FIG. 3. Provided compounds can provide various activities. (A): Provided technologies can reduce KAT2A and KAT2B levels and histone acetylation levels. […] Cell viability (Cell Titer Glo) data relative to DMSO control after 7 days of treatment with compound 22 are presented as examples to confirm inhibition. GI50=5 nM. (C): Provided technologies can modulate cell states and induce differentiation. […] (D): Provided technologies can reduce KAT2A and KAT2B levels and histone acetylation levels including in neuroendocrine prostate cancer primary patient organoid. […] Concentrations are nM. […] Cell viability data relative to DMSO control after 21 days of treatment with compound 22 are presented as examples to confirm inhibition. GI50=3 nM. (F): Provided technologies can modulate cell states and induce differentiation.
# [4] = system: neuroendocrine prostate cancer cells, e.g., LASCPC-01 cells; assay: Differentiation GSEA signatures from RNA-Seq, LASCPC-01; format: cell-based; settings: FIG. 3
# Experimental: In some embodiments, GSEA signatures are utilized for assessing cell states, differentiation, etc. In some assessments, differentiation GSEA signatures, e.g., from RNA-Seq was performed. A useful protocol is described herein as an example. In some assessments, LASCPC-01 cells, NEPC organoid cell pellets, or NCI-H1048 tumor pieces were flash frozen upon harvest and stored at −80° C. RNA was isolated, mRNA library was prepared (poly A enrichment) and sequencing was run. Reads were aligned to reference v38 using Kallis to generate gene count matrices for each sample. The gene count matrix was the input to the ML pipelines that generate normal atlas scores and cell state classification. It was also input to differential expression analysis using Edger in R. The output of differential expression was input to gene set enrichment analysis (GSEA) to define gene sets that were most shifted by treatment. For defining specific epithelial differentiation endpoints to generate the solid tumor differentiation box plots, cell state gene sets resulting from GSEA are consolidated by cell state to define a consensus set of genes that define epithelial differentiation. Other suitable technologies may also utilized in accordance with the present disclosure.
smiles,measurement,setting,value
"CN1C[C@H](Nc2cnn(C)c(=O)c2Br)C[C@H](c2ccc(C(=O)N3CCC(CN4CCN(c5ccc6c(c5)CN(C5CCC(=O)NC5=O)C6=O)CC4)CC3)cc2)C1 (stereo partly drawn) [Compound 22, 3-(5-(4-((1-(4-((3R,5R)-5-((5-bromo-1-methyl-6-oxo-1,6-dihydropyridazin-4-yl)amino)-1-methylpiperidin-3-yl)benzoyl)piperidin-4-yl)methyl)piperazin-1-yl)-1-oxoisoindolin-2-yl)piperidine-2,6-dione]",tumor growth inhibition,NCI-H1048 tumors,70%
same,"histone acetylation (e.g., AcH3K9) levels",[1],"reduce histone acetylation (e.g., AcH3K9) levels"
same,reduction of histone acetylation level,histone acetylation [2],confirm such reduction
same,reduction of histone acetylation in tumor,histone acetylation [3],significant reduction
same,GI50,LASCPC-01 cells,5 nM
same,induction of differentiation,[4],"induce differentiation (e.g., epithelial, neural, and/or microglial)"
